These results are taken from ChEMBL document CHEMBL1147645, “Design and synthesis of 2,3,4,9-tetrahydro-1H-carbazole and 1,2,3,4-tetrahydro-cyclopenta[b]indole derivatives as non-nucleoside inhibitors of hepatitis C virus NS5B RNA-dependent RNA polymerase” (Bioorg Med Chem Lett, 2006).

Bounds are passed on as bounds.

The first series has as its system Huh-7. The series can be described thus: Cytotoxicity against Huh7 cells by MTS assay. The format is functional, cell-based. The conditions noted are these: Homo sapiens. On the technique in general: Tetrazolium dyes change colour on reduction, which living cells bring about.
On to `CCCC1(C(=O)O)CCc2c1[nH]c1c(Cl)ccc(Cl)c21` (centres undefined), for which the IC50 stood at 43 µM. This counts as double-digit micromolar.

Test system in the next series: not listed separately
Kind of series: Permeability at pH 7.4 by PAMPA assay. The conditions noted are these: read-out: permeability. In kind it is ADME.
For `CCCC1(C(=O)O)CCc2c1[nH]c1c(Cl)ccc(Cl)c21` (centres undefined), the Papp was determined as 6.48 ×10⁻⁶ cm/s.

A further series deals with RNA-directed RNA polymerase (Hepacivirus hominis, UniProt O39930). Kind of series: Inhibition of HCV 1b BK NS5B RNA polymerase.
Sequence of RNA-directed RNA polymerase (O39930 whole entry): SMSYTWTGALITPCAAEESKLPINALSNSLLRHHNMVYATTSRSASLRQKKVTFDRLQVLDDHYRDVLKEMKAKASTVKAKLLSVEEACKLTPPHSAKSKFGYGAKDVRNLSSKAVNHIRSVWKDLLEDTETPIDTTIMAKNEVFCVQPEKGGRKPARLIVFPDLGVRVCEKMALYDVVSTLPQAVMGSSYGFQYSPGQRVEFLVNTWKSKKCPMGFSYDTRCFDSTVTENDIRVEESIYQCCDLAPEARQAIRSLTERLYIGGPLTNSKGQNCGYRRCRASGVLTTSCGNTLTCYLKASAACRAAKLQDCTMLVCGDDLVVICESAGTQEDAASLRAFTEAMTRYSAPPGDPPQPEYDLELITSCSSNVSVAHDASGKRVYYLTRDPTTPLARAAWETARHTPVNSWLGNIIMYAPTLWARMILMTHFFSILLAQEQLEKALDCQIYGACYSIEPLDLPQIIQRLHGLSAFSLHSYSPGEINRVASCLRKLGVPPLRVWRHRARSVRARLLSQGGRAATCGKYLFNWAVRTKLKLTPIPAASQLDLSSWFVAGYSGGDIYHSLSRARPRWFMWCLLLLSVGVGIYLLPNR
Settings: not given
Set-up: species or system Hepatitis C virus (isolate BK).
Regarding `CCCC1(CC(=O)O)CCCc2c1[nH]c1c(Cl)cc(Br)cc21` (centres undefined), the IC50 was greater than 33 µM. Still for that read-out and setting: next, `CCCCC1(C(=O)O)CCc2c1[nH]c1c(F)ccc(C#N)c21` (centres undefined): 5.4 µM. Same read-out and setting: next, `C=CCC1(C(=O)O)CCc2c1[nH]c1c(C)ccc(C#N)c21` (centres undefined): 11 µM. Same read-out and setting: in the case of `CCCCC1(C(=O)O)CCc2c1[nH]c1c(Cl)ccc(Cl)c21` (centres undefined) it was 1.9 µM; in that of `CCCC1(CC(=O)O)CCCc2c1[nH]c1ccc(Cl)cc21` (centres undefined), greater than 33 µM; in that of `CCCC1(C(=O)O)CCc2c1[nH]c1c(C)cc(F)c(C#N)c21` (centres undefined), 1.8 µM.

The compound `CCCC1(CC(=O)O)CCCc2c1[nH]c1c(F)ccc(F)c21` (centres undefined) registered an IC50 greater than 33 µM. Still for that read-out and setting: in the case of `CCCC1(CC(=O)O)OCCc2c1[nH]c1c(C)ccc(C#N)c21` (centres undefined) it was 0.33 µM; in that of `CCCC1(C(=O)O)CCCc2c1[nH]c1c(F)ccc(C#N)c21` (centres undefined), 10 µM; in that of `CCCC1(C(=O)O)CCCc2c1[nH]c1c(C)ccc(C#N)c21` (centres undefined), 15 µM. Still for that read-out and setting: next, `CCCC1(C(=O)O)CCc2c1[nH]c1c(Cl)ccc(Cl)c21` (centres undefined): 0.55 µM; `CCCC1(C(=O)O)CCc2c1[nH]c1c(C)ccc(C#N)c21` (centres undefined): 4.7 µM; `C=CCC1(C(=O)O)CCc2c1[nH]c1c(F)ccc(C#N)c21` (centres undefined): 14.5 µM.

Consider `CCCC1(CC(=O)O)CCCc2c1[nH]c1cc(F)cc(F)c21` (centres undefined), for which the IC50 was found to be 30 µM. On the same count and under the same terms, in the case of `CCCC1(CC(=O)O)CCCc2c1[nH]c1c(F)c(F)ccc21` (centres undefined) it was greater than 33 µM; in that of `CCCC1(C(=O)O)CCCc2c1[nH]c1c(Cl)ccc(C(F)(F)F)c21` (centres undefined), 5.8 µM; in that of `CCCC1(CC(=O)O)CCCc2c1[nH]c1c(C)ccc(C#N)c21` (centres undefined), 2.1 µM. `CCCC1(C(=O)O)CCCc2c1[nH]c1c(Cl)ccc(Cl)c21` (centres undefined) returned an IC50 of 3.2 µM. This IC50 is about 1.5-fold higher than that of the compound before. Still for that read-out and setting: next, `CCCC1(C(=O)O)CCc2c1[nH]c1c(F)ccc(C#N)c21` (centres undefined): 8.1 µM; `C=CCC1(C(=O)O)CCc2c1[nH]c1c(Cl)ccc(Cl)c21` (centres undefined): 1.2 µM. `CCCC1(CC(=O)O)CCCc2c1[nH]c1c(C(N)=O)ccc(C#N)c21` (centres undefined) returned a 50% inhibitory concentration (IC50) greater than 33 µM.

`C=CCC1(C(=O)O)CCc2c1[nH]c1c(C)cc(F)c(C#N)c21` (centres undefined) returned an IC50 of 6.3 µM.

In the case of `CCCCC1(C(=O)O)CCc2c1[nH]c1c(C)cc(F)c(C#N)c21` (centres undefined), the IC50 was 1.5 µM.

`CCCC1(CC(=O)O)CCCc2c1[nH]c1c(F)ccc(C#N)c21` (centres undefined) returned an IC50 of 2 µM.

`CCCCC1(C(=O)O)CCc2c1[nH]c1c(C)ccc(C#N)c21` (centres undefined) showed an IC50 of 4.6 µM. The same measure, in the same setting: next, `CCCC1(CC(=O)O)CCCc2c1[nH]c1c(C#N)ccc(C#N)c21` (centres undefined): 2.3 µM; `CCCC1(CC(=O)O)CCCc2c1[nH]c1ccccc21` (centres undefined): greater than 33 µM.

A word on the IC50: it is the point on the concentration scale where inhibition reaches its midpoint. A high value points to a need for much substance.
